Experimental data taken from patent US11814367B2, “Inhibitors of glycogen synthase 1 (GYS1) and methods of use thereof” (Maze Therapeutics, Inc., priority 2021, dated 2023).

What was measured:
[1] = biological target: hGYS2 enzyme (recombinant hGYS2/GN1 protein) (Homo sapiens (Human), UniProt P54840); assay: GYS2 coupled enzyme assay (PK/LDH); type: biochemical; conditions: geometric mean of at least 2 assay runs on separate days, read-out: Avg_IC50
How it was run: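 Read-out: NADH loss at 340 nm, read each minute for 10 min, slope normalized to controls, duplicate % inhibition fit to Hill (0–100). Enzyme: 200 nM hGYS2/GN1; substrate 2 mM UDP-glucose plus 0.2% glycogen and 2 mM G6P; pH 7.5 Tris, 2.5% DMSO.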

[2] = biological target: hGYS1 enzyme (recombinant hGYS1/GN1 protein) (Homo sapiens (Human), UniProt P13807); assay: GYS1 coupled enzyme assay (PK/LDH); type: biochemical; conditions: hGYS1/GN1 50 nM, UDP-Glucose 0.8 mM, G6P 1 mM; geometric mean of at least 2 runs
Chain of hGYS1 enzyme (recombinant hGYS1/GN1 protein) (P13807 whole entry): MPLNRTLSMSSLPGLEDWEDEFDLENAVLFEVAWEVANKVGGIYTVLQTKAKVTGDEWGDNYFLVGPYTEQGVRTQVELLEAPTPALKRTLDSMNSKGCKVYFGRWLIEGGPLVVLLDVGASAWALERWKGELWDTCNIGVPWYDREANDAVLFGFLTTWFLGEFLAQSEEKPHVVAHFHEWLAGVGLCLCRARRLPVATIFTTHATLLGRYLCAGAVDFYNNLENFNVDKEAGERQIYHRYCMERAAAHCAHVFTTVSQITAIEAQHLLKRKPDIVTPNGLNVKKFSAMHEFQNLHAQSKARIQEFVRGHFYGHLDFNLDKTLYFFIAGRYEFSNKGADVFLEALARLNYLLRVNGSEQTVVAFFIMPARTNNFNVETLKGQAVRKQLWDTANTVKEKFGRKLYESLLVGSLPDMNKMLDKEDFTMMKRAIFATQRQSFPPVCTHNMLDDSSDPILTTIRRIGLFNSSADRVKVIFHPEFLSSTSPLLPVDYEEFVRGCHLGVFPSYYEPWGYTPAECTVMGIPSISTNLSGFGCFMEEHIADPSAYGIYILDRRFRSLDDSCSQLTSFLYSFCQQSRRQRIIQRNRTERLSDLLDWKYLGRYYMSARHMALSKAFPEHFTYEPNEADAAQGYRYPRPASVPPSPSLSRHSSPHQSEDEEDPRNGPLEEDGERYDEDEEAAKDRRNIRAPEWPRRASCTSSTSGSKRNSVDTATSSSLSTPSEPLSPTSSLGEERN
Chain of hGYS1 enzyme (recombinant hGYS1/GN1 protein) (P46976 whole entry partner): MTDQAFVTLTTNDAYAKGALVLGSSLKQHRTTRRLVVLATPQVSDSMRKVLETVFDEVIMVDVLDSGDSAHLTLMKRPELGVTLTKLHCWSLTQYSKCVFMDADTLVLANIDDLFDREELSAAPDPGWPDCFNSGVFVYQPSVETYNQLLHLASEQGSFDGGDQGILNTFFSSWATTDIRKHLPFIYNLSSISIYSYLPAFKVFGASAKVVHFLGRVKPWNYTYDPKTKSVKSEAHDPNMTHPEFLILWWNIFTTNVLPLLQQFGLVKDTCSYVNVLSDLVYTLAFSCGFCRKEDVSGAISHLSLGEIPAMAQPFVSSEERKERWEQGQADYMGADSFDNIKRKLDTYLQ

Chain of hGYS2 enzyme (recombinant hGYS2/GN1 protein) (P54840 whole entry): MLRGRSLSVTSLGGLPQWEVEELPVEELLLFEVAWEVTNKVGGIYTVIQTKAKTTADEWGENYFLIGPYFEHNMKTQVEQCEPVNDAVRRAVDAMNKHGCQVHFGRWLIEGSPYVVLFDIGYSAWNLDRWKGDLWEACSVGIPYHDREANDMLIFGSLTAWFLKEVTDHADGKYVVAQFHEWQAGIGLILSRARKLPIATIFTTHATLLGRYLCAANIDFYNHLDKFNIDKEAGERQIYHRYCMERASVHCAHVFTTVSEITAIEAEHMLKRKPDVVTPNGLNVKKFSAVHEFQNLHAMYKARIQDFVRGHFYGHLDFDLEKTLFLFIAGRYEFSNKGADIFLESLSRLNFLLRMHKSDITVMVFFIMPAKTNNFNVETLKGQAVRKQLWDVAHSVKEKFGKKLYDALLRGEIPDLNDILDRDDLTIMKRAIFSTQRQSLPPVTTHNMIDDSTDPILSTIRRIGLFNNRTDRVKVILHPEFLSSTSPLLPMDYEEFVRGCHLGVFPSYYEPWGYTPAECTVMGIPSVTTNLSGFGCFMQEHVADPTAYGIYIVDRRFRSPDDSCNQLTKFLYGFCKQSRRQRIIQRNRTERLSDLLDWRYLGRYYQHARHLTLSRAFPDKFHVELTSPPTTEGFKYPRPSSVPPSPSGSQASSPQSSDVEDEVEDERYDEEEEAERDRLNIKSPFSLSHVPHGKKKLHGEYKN
Chain of hGYS2 enzyme (recombinant hGYS2/GN1 protein) (P46976 whole entry partner): as the sequence (P46976 whole entry partner) above

Row | IC50 [1] | IC50 [2] | Structure (SMILES)
1 | > 100000 nM | 25 nM | COc1cccc(CC(=O)N2C[C@H](F)C[C@H]2C(=O)N[C@@H](c2ccccc2)c2ccc(C(C)C)cc2)n1 [Compound 81, (2S,4R)-4-fluoro-1-[2-(6-methoxypyridin-2-yl)acetyl]-N-[(S)-phenyl[4-(propan-2-yl)phenyl]methyl]pyrrolidine-2-carboxamide]
2 | > 100000 nM | 15 nM | Cc1cc(CC(=O)N2C[C@H](F)C[C@H]2C(=O)N[C@@H](c2ccccc2)c2ccc(C(C)C)cc2)nn1C [Compound 83, (2S,4R)-1-[2-(1,5-dimethyl-1H-pyrazol-3-yl)acetyl]-4-fluoro-N-[(S)-phenyl[4-(propan-2-yl)phenyl]methyl]pyrrolidine-2-carboxamide]
3 | > 100000 nM | 10 nM | Cc1n[nH]c(C)c1CC(=O)N1C[C@H](F)C[C@H]1C(=O)N[C@@H](c1ccccc1)c1ccc(C(C)C)cc1 [Compound 84, (2S,4R)-1-[2-(3,5-dimethyl-1H-pyrazol-4-yl)acetyl]-4-fluoro-N-[(S)-phenyl[4-(propan-2-yl)phenyl]methyl]pyrrolidine-2-carboxamide]
4 | > 100000 nM | 154 nM | CC(C)c1ccc([C@@H](NC(=O)[C@@H]2C[C@@H](F)CN2C(=O)CN2CCCCC2=O)c2ccccc2)cc1 [Compound 85, (2S,4R)-4-fluoro-1-[2-(2-oxopiperidin-1-yl)acetyl]-N-[(S)-phenyl[4-(propan-2-yl)phenyl]methyl]pyrrolidine-2-carboxamide]
5 | > 100000 nM | 12 nM | CC(C)c1ccc([C@@H](NC(=O)[C@@H]2C[C@@H](F)CN2C(=O)Cc2c[nH]c3ccccc23)c2ccccc2)cc1 [Compound 86, (2S,4R)-4-fluoro-1-[2-(1H-indol-3-yl)acetyl]-N-[(S)-phenyl[4-(propan-2-yl)phenyl]methyl]pyrrolidine-2-carboxamide]
6 | > 100000 nM | 28 nM | CC(C)c1ccc([C@@H](NC(=O)[C@@H]2C[C@@H](F)CN2C(=O)Cc2noc(C(C)C)n2)c2ccccc2)cc1 [Compound 87, (2S,4R)-4-fluoro-N-[(S)-phenyl[4-(propan-2-yl)phenyl]methyl]-1-{2-[5-(propan-2-yl)-1,2,4-oxadiazol-3-yl]acetyl}pyrrolidine-2-carboxamide]
7 | > 100000 nM | 49 nM | COc1ccc(CC(=O)N2C[C@H](F)C[C@H]2C(=O)N[C@@H](c2ccccc2)c2ccc(C(C)C)cc2)cc1 [Compound 88, (2S,4R)-4-fluoro-1-[2-(4-methoxyphenyl)acetyl]-N-[(S)-phenyl[4-(propan-2-yl)phenyl]methyl]pyrrolidine-2-carboxamide]
8 | > 100000 nM | 60 nM | COc1ccc(CC(=O)N2C[C@H](F)C[C@H]2C(=O)N[C@@H](c2ccccc2)c2ccc(C(C)C)cc2)cc1F [Compound 89, (2S,4R)-4-fluoro-1-[2-(3-fluoro-4-methoxyphenyl)acetyl]-N-[(S)-phenyl[4-(propan-2-yl)phenyl]methyl]pyrrolidine-2-carboxamide]
9 | > 100000 nM | 32 nM | COc1ccc(F)cc1CC(=O)N1C[C@H](F)C[C@H]1C(=O)N[C@@H](c1ccccc1)c1ccc(C(C)C)cc1 [Compound 90, (2S,4R)-4-fluoro-1-[2-(5-fluoro-2-methoxyphenyl)acetyl]-N-[(S)-phenyl[4-(propan-2-yl)phenyl]methyl]pyrrolidine-2-carboxamide]
10 | > 100000 nM | 47 nM | Cc1ccccc1OCC(=O)N1C[C@H](F)C[C@H]1C(=O)N[C@@H](c1ccccc1)c1ccc(C(C)C)cc1 [Compound 91, (2S,4R)-4-fluoro-1-[2-(2-methylphenoxy)acetyl]-N-[(S)-phenyl[4-(propan-2-yl)phenyl]methyl]pyrrolidine-2-carboxamide]
11 | > 100000 nM | 108 nM | CC(C)c1ccc([C@@H](NC(=O)[C@@H]2C[C@@H](F)CN2C(=O)C2CCNC(=O)C2)c2ccccc2)cc1 (stereo partly drawn) [Compound 93, (2S,4R)-4-fluoro-1-(2-oxopiperidin-4-carbonyl)-N-[(S)-phenyl[4-(propan-2-yl)phenyl]methyl]pyrrolidine-2-carboxamide]
12 | > 100000 nM | 188 nM | CC(C)c1ccc([C@@H](NC(=O)[C@@H]2C[C@@H](F)CN2C(=O)CCCc2cccnc2)c2ccccc2)cc1 [Compound 94, (2S,4R)-4-fluoro-N-[(S)-phenyl[4-(propan-2-yl)phenyl]methyl]-1-[4-(pyridin-3-yl)butanoyl]pyrrolidine-2-carboxamide]

Second part, the molecule before the results:

Row | Structure (SMILES) | IC50 [1] | IC50 [2]
13 | CC(C)c1ccc([C@@H](NC(=O)[C@@H]2C[C@@H](F)CN2C(=O)CCc2cnccn2)c2ccccc2)cc1 [Compound 59, (2S,4R)-4-fluoro-N-[(S)-phenyl[4-(propan-2-yl)phenyl]methyl]-1-[3-(pyrazin-2-yl)propanoyl]pyrrolidine-2-carboxamide] | > 100000 nM | 85 nM
14 | CC(C)c1ccc([C@@H](NC(=O)[C@@H]2C[C@@H](F)CN2C(=O)CCc2cncnc2)c2ccccc2)cc1 [Compound 60, (2S,4R)-4-fluoro-N-[(S)-phenyl[4-(propan-2-yl)phenyl]methyl]-1-[3-(pyrimidin-5-yl)propanoyl]pyrrolidine-2-carboxamide] | > 100000 nM | 188 nM
15 | COc1nn(C)cc1C(=O)N1C[C@H](F)C[C@H]1C(=O)N[C@@H](c1ccccc1)c1ccc(C(C)C)cc1 [Compound 61, (2S,4R)-4-fluoro-1-(3-methoxy-1-methyl-1H-pyrazole-4-carbonyl)-N-[(S)-phenyl[4-(propan-2-yl)phenyl]methyl]pyrrolidine-2-carboxamide] | > 100000 nM | 243 nM
16 | Cc1nnc(CCC(=O)N2C[C@H](F)C[C@H]2C(=O)N[C@@H](c2ccccc2)c2ccc(C(C)C)cc2)s1 [Compound 62, (2S,4R)-4-fluoro-1-[3-(5-methyl-1,3,4-thiadiazol-2-yl)propanoyl]-N-[(S)-phenyl[4-(propan-2-yl)phenyl]methyl]pyrrolidine-2-carboxamide] | > 100000 nM | 64 nM
17 | CC(C)c1ccc([C@@H](NC(=O)[C@@H]2C[C@@H](F)CN2C(=O)Cc2cc(F)ccc2Cl)c2ccccc2)cc1 [Compound 63, (2S,4R)-1-[2-(2-chloro-5-fluorophenyl]acetyl]-4-fluoro-N-[(S)-phenyl[4-(propan-2-yl)phenyl]methyl]pyrrolidine-2-carboxamide] | > 100000 nM | 15 nM
18 | CC(C)c1ccc([C@@H](NC(=O)[C@@H]2C[C@@H](F)CN2C(=O)C(C)c2ccccn2)c2ccccc2)cc1 (stereo partly drawn) [Compound 64, (2S,4R)-4-fluoro-N-[(S)-phenyl[4-(propan-2-yl)phenyl]methyl]-1-[2-(pyridin-2-yl)propanoyl]pyrrolidine-2-carboxamide] | > 100000 nM | 81 nM
19 | CC(C)c1ccc([C@@H](NC(=O)[C@@H]2C[C@@H](F)CN2C(=O)CCc2ccccn2)c2ccccc2)cc1 [Compound 65, (2S,4R)-4-fluoro-N-[(S)-phenyl[4-(propan-2-yl)phenyl]methyl]-1-[3-(pyridin-2-yl)propanoyl]pyrrolidine-2-carboxamide] | > 100000 nM | 76 nM
20 | CC(C)c1ccc([C@@H](NC(=O)[C@@H]2C[C@@H](F)CN2C(=O)CNC(=O)N(C)C)c2ccccc2)cc1 [Compound 67, (2S,4R)-1-{2-[(dimethylcarbamoyl)amino]acetyl}-4-fluoro-N-[(S)-phenyl[4-(propan-2-yl)phenyl]methyl]pyrrolidine-2-carboxamide] | > 100000 nM | 10 nM
21 | CC(C)c1ccc([C@@H](NC(=O)[C@@H]2C[C@@H](F)CN2C(=O)Cn2nnc3ccccc32)c2ccccc2)cc1 [Compound 68, (2S,4R)-1-[2-(1H-1,2,3-benzotriazol-1-yl)acetyl]-4-fluoro-N-[(S)-phenyl[4-(propan-2-yl)phenyl]methyl]pyrrolidine-2-carboxamide] | > 100000 nM | 34 nM
22 | Cc1nc(CC(=O)N2C[C@H](F)C[C@H]2C(=O)N[C@@H](c2ccccc2)c2ccc(C(C)C)cc2)c(C)s1 [Compound 69, (2S,4R)-1-[2-(2,5-dimethyl-1,3-thiazol-4-yl)acetyl]-4-fluoro-N-[(S)-phenyl[4-(propan-2-yl)phenyl]methyl]pyrrolidine-2-carboxamide] | > 100000 nM | 36 nM
23 | Cc1noc(C)c1CC(=O)N1C[C@H](F)C[C@H]1C(=O)N[C@@H](c1ccccc1)c1ccc(C(C)C)cc1 [Compound 70, (2S,4R)-1-[2-(3,5-dimethyl-1,2-oxazol-4-yl)acetyl]-4-fluoro-N-[(S)-phenyl[4-(propan-2-yl)phenyl]methyl]pyrrolidine-2-carboxamide] | > 100000 nM | 50 nM
24 | CC(C)c1ccc([C@@H](NC(=O)[C@@H]2C[C@@H](F)CN2C(=O)C(C)n2ccccc2=O)c2ccccc2)cc1 (stereo partly drawn) [Compound 73, (2S,4R)-4-fluoro-1-[2-(2-oxo-1,2-dihydropyridin-1-yl)propanoyl]-N-[(S)-phenyl[4-(propan-2-yl)phenyl]methyl]pyrrolidine-2-carboxamide] | > 100000 nM | 105 nM
25 | CC(C)c1ccc([C@@H](NC(=O)[C@@H]2C[C@@H](F)CN2C(=O)CCCn2ccnc2)c2ccccc2)cc1 [Compound 75, (2S,4R)-4-fluoro-1-[4-(1H-imidazol-1-yl)butanoyl]-N-[(S)-phenyl[4-(propan-2-yl)phenyl]methyl]pyrrolidine-2-carboxamide] | > 100000 nM | 224 nM
26 | CC(C)c1ccc([C@@H](NC(=O)[C@@H]2C[C@@H](F)CN2C(=O)CCc2cnn(C)c2)c2ccccc2)cc1 [Compound 76, (2S,4R)-4-fluoro-1-[3-(1-methyl-1H-pyrazol-4-yl)propanoyl]-N-[(S)-phenyl[4-(propan-2-yl)phenyl]methyl]pyrrolidine-2-carboxamide] | > 100000 nM | 106 nM
